Test results reported in patent US7399775B2, “β-amyloid protein production/secretion inhibitor” (Daiichi Pharmaceutical Co., Ltd., priority 2001, dated 2008).

Compound | melting point
Cl.O=S(=O)(c1ccc(Cl)cc1)C(CCCCN1CCCC1)c1cc(F)ccc1F (centres unmarked) | 167 to 170.5 °C
Cl.O=S(=O)(c1ccc(Cl)cc1)C(CCNCCO)c1cc(F)ccc1F (centres unmarked) | 216 to 220 °C
Cl.O=S(=O)(c1ccc(Cl)cc1)C1(c2cc(F)ccc2F)CCNCC1 | 239 to 246 °C (dec.)
Cl.O=S(=O)(c1ccc(Cl)cc1)C(c1cc(F)ccc1F)C1CCNCC1 (centres unmarked) | 184 to 190 °C
O=C(OC(=C(c1cc(F)ccc1F)S(=O)(=O)c1ccc(Cl)cc1)c1ccccc1)c1ccccc1 [Example 9, 2-[(4-Chlorophenyl)sulfonyl]-2-(2,5-difluorophenyl)-1-phenylethenyl benzoate] | 224.5 to 227 °C
O=S(=O)(c1ccc(Cl)cc1)C(CCCCO)(CCCCO)c1cc(F)ccc1F [Example 19, 5-[(4-Chlorophenyl)sulfonyl]-5-(2,5-difluorophenyl)-1,9-nonanediol] | 107 to 108.5 °C
CCOC(=O)CC(c1cc(F)ccc1F)S(=O)(=O)c1ccc(Cl)cc1 (centres unmarked) [Example 25, Ethyl 3-[(4-chlorophenyl)sulfonyl]-3-(2,5-difluorophenyl)propionate] | 99.5 to 100.5 °C
C=COCCCCC(c1cc(F)ccc1F)S(=O)(=O)c1ccc(Cl)cc1 (centres unmarked) [Example 28, 2-[1-[(4-Chlorophenyl)sulfonyl]-5-vinyloxypentyl]-1,4-difluorobenzene] | 54 to 56 °C
O=S(=O)(c1ccc(Cl)cc1)C1(c2cc(F)ccc2F)CCCC1 [Example 30, 2-[1-[(4-Chlorophenyl)sulfonyl]cyclopentyl]-1,4-difluorobenzene] | 153 to 155 °C
C=COCCOCCC(c1cc(F)ccc1F)S(=O)(=O)c1ccc(Cl)cc1 (centres unmarked) [Example 34, 2-[1-[(4-Chlorophenyl)sulfonyl]-3-(2-vinyloxyethoxy)propyl]-1,4-difluorobenzene] | 55 to 56 °C
O=S(=O)(c1ccc(Cl)cc1)C(CCCCCBr)c1cc(F)ccc1F (centres unmarked) [Example 37, 2-[6-Bromo-1-[(4-chlorophenyl)sulfonyl]hexyl]-1,4-difluorobenzene] | 77 to 79 °C
CC(CCCO)C(c1cc(F)ccc1F)S(=O)(=O)c1ccc(Cl)cc1 (centres unmarked) [Example 39, 5-[(4-Chlorophenyl)sulfonyl]-5-(2,5-difluorophenyl)-4-methyl-1-pentanol] | 84 to 86 °C
O=S(=O)(Cc1ccccc1)c1ccc(Cl)cc1 [Example 50, 1-Chloro-4-(benzylsulfonyl)benzene] | 147.5 to 148.5 °C
CS(=O)(=O)CCCCC(c1ccccc1)S(=O)(=O)c1ccc(Cl)cc1 (centres unmarked) [Example 51, 1-Chloro-4-(5-methylsulfonyl-1-phenylpentyl)sulfonylbenzene] | 151 to 152 °C
C[S+]([O-])CCCCC(c1ccccc1)S(=O)(=O)c1ccc(Cl)cc1 (centres unmarked) [Example 52, 1-Chloro-4-(5-methylsulfinyl-1-phenylpentyl)sulfonylbenzene] | 98.5 to 99.5 °C
CS(=O)(=O)CCCCC(c1ccccc1F)S(=O)(=O)c1ccc(Cl)cc1 (centres unmarked) [Example 53, 1-[1-[(4-Chlorophenyl)sulfonyl]-5-(methylsulfonyl)pentyl]-2-fluorobenzene] | 167 to 168 °C
CS(=O)(=O)CCCCC(c1cccc(F)c1)S(=O)(=O)c1ccc(Cl)cc1 (centres unmarked) [Example 54, 1-[1-[(4-Chlorophenyl)sulfonyl]-5-(methylsulfonyl)pentyl]-3-fluorobenzene] | 116 to 117 °C
CS(=O)(=O)CCCCC(c1ccc(F)cc1)S(=O)(=O)c1ccc(Cl)cc1 (centres unmarked) [Example 55, 1-[1-[(4-Chlorophenyl)sulfonyl]-5-(methylsulfonyl)pentyl]-4-fluorobenzene] | 141 to 142.5 °C
CC(C)(C)OC(=O)CC(c1cc(F)ccc1F)S(=O)(=O)c1ccc(Cl)cc1 (centres unmarked) [Example 61, t-Butyl 3-[(4-chlorophenyl)sulfonyl]-3-(2,5-difluorophenyl)propionate] | 140.5 to 142 °C
CS(=O)(=O)CCCCC(c1ccc2ccccc2c1)S(=O)(=O)c1ccc(Cl)cc1 (centres unmarked) [Example 67, 2-[1-[(4-Chlorophenyl)sulfonyl]-5-(methylsulfonyl)pentyl]naphthalene] | 146 to 147 °C
CS(=O)(=O)CCCCC(c1ccc(F)cc1Cl)S(=O)(=O)c1ccc(Cl)cc1 (centres unmarked) [Example 68, 2-Chloro-1-[1-[(4-chlorophenyl)sulfonyl]-5-(methylsulfonyl)pentyl]-4-fluorobenzene] | 124 to 125 °C
CS(=O)(=O)CCCCC(c1ccc(Cl)c(Cl)c1)S(=O)(=O)c1ccc(Cl)cc1 (centres unmarked) [Example 69, 1,2-Dichloro-4-[1-[(4-chlorophenyl)sulfonyl]-5-(methylsulfonyl)pentyl]benzene] | 143 to 144 °C
CS(=O)(=O)CCCCC(c1ccccn1)S(=O)(=O)c1ccc(Cl)cc1 (centres unmarked) [Example 70, 2-[1-[(4-Chlorophenyl)sulfonyl]-5-(methylsulfonyl)pentyl]pyridine] | 140 to 141 °C
CS(=O)(=O)CCCCC(c1cc(F)cc(F)c1)S(=O)(=O)c1ccc(Cl)cc1 (centres unmarked) [Example 72, 1-[1-[(4-Chlorophenyl)sulfonyl]-5-(methylsulfonyl)pentyl]-3,5-difluorobenzene] | 126 to 127 °C
CS(=O)(=O)CCCCC(c1ccncc1)S(=O)(=O)c1ccc(Cl)cc1 (centres unmarked) [Example 74, 4-[1-[(4-Chlorophenyl)sulfonyl]-5-(methylsulfonyl)pentyl]pyridine] | 181 to 182 °C
CS(=O)(=O)CCCCC(c1ccc(F)c(F)c1)S(=O)(=O)c1ccc(Cl)cc1 (centres unmarked) [Example 76, 4-[1-(4-Chlorophenylsulfonyl)-5-(methylsulfonyl)pentyl]-1,2-difluorobenzene] | 122 to 124 °C
CS(=O)(=O)CCCCC(c1cccc(F)c1F)S(=O)(=O)c1ccc(Cl)cc1 (centres unmarked) [Example 77, 1-[1-(4-Chlorophenylsulfonyl)-5-(methylsulfonyl)pentyl]-2,3-difluorobenzene] | 141 to 143 °C
CS(=O)(=O)CCCCC(c1cccc(Cl)c1F)S(=O)(=O)c1ccc(Cl)cc1 (centres unmarked) [Example 78, 1-Chloro-3-[1-(4-chlorophenylsulfonyl)-5-(methylsulfonyl)pentyl]-2-fluorobenzene] | 131 to 132 °C
CS(=O)(=O)CCCCC(c1cc(Cl)ccc1F)S(=O)(=O)c1ccc(Cl)cc1 (centres unmarked) [Example 79, 4-Chloro-2-[1-(4-chlorophenylsulfonyl)-5-(methylsulfonyl)pentyl]-1-fluorobenzene] | 116 to 117 °C
CS(=O)(=O)CCCCC(c1c(F)cccc1F)S(=O)(=O)c1ccc(Cl)cc1 (centres unmarked) [Example 81, 2-[1-(4-Chlorophenylsulfonyl)-5-(methylsulfonyl)pentyl]-1,3-difluorobenzene] | 118 to 119 °C

Now from value to molecule:

melting point | Compound
146 to 147 °C | O=c1oc2ccccc2c(O)c1C(Sc1ccc(Cl)cc1)c1cc(F)ccc1F (centres unmarked)
184 to 189 °C | Cl.O=C(OCCC(c1cc(F)ccc1F)S(=O)(=O)c1ccc(Cl)cc1)N1CCN(Cc2ccccc2)CC1 (centres unmarked)
232 to 233 °C | Cl.NCCCC(c1cc(F)ccc1F)S(=O)(=O)c1ccc(Cl)cc1 (centres unmarked)
154 to 157 °C | Cl.O=C(NCCCC(c1cc(F)ccc1F)S(=O)(=O)c1ccc(Cl)cc1)c1cccnc1 (centres unmarked)
147 to 148 °C | O=S(=O)(c1ccc(Cl)cc1)C(c1cc(F)ccc1F)c1cc(Cl)ncc1Cl (centres unmarked) (hydrate or solvate) [Example 345, 2,5-Dichloro-4-[(4-chlorophenylsulfonyl)-(2,5-difluorophenyl)methyl]pyridine 0.5 hydrate]
111 to 112 °C | CC(CCO)C(c1cc(F)ccc1F)S(=O)(=O)c1ccc(Cl)cc1 (single isomer, unassigned) [Example 238, 4-(4-Chlorophenylsulfonyl)-4-(2,5-difluorophenyl)-3-methyl-1-butanol]
65 to 67 °C | CC(CCO)C(c1cc(F)ccc1F)S(=O)(=O)c1ccc(Cl)cc1 (single isomer, unassigned) [Example 239, 4-(4-Chlorophenylsulfonyl)-4-(2,5-difluorophenyl)-3-methyl-1-butanol]
144.5 to 145 °C | O=S(=O)(/C(=C/c1ccccc1)c1cc(F)ccc1F)c1ccc(Cl)cc1 [Example 6, E-2-[1-[(4-Chlorophenyl)sulfonyl]-2-phenylethenyl]-1,4-difluorobenzene]
85.5 to 86 °C | CCCC(=O)C(c1cc(F)ccc1F)S(=O)(=O)c1ccc(Cl)cc1 (centres unmarked) [Example 7, 1-[(4-Chlorophenyl)sulfonyl]-1-(2,5-difluorophenyl)-2-pentanone]
179.5 to 180 °C | O=C(c1ccccc1)C(c1cc(F)ccc1F)S(=O)(=O)c1ccc(Cl)cc1 (centres unmarked) [Example 8, 2-[(4-Chlorophenyl)sulfonyl]-2-(2,5-difluorophenyl)-1-phenyl-1-ethanone]
76.5 to 78 °C | CCCC(O)C(c1cc(F)ccc1F)S(=O)(=O)c1ccc(Cl)cc1 (centres unmarked) [Example 11, 1-[(4-Chlorophenyl)sulfonyl]-1-(2,5-difluorophenyl)-2-pentanol]
103 to 106 °C | CSCCCCC(c1cc(F)ccc1F)S(=O)(=O)c1ccc(Cl)cc1 (centres unmarked) [Example 26, 2-[1-[(4-Chlorophenyl)sulfonyl]-5-(methylthio)pentyl]-1,4-difluorobenzene]
67 to 69 °C | CC(CCCO)C(c1cc(F)ccc1F)S(=O)(=O)c1ccc(Cl)cc1 (centres unmarked) [Example 40, 5-[(4-Chlorophenyl)sulfonyl]-5-(2,5-difluorophenyl)-4-methyl-1-pentanol]
128 to 129 °C | CSC(c1cc(F)ccc1F)S(=O)(=O)c1ccc(Cl)cc1 (centres unmarked) [Example 56, 2-[1-[(4-Chlorophenyl)sulfonyl]-1-methylthio]methyl-1,4-difluorobenzene]
84 to 85 °C | O=S(=O)(c1ccc(Cl)cc1)C(Sc1ccccc1)c1cc(F)ccc1F (centres unmarked) [Example 57, 2-[1-[(4-Chlorophenyl)sulfonyl]-1-phenylthio]methyl-1,4-difluorobenzene]
127 to 128 °C | O=C(CC(c1cc(F)ccc1F)S(=O)(=O)c1ccc(Cl)cc1)OCc1ccccc1 (centres unmarked) [Example 59, Benzyl 3-(4-chlorophenylsulfonyl)-3-(2,5-difluorophenyl)propionate]
152 to 153 °C | O=C(O)CC(c1cc(F)ccc1F)S(=O)(=O)c1ccc(Cl)cc1 (centres unmarked) [Example 62, 3-[(4-Chlorophenyl)sulfonyl]-3-(2,5-difluorophenyl)propionic Acid]
